Entries after “also recorded” stand apart in the source; their conditions may differ.

Data set [1] deals with C. orbiculare eIF4A^WT conidia and mycelia. In words: Ribosome profiling and RNA-Seq, translation efficiency change. It is filed as cell-based, Colletotrichum orbiculare. As to conditions: 0.3 or 3 µM aglafoline, 6 h. On the procedure: (§1) Glycerol stocks of C. orbiculare eIF4A^WT#1 and eIF4A^H153G#1 strains were streaked on PDA in 90 mm plastic Petri dishes and incubated for 3 days. A single colony of each strain was transferred onto PDA and incubated for 3 days. The outer edges of colonies were transferred to 90 mm plastic dishes filled with 20 ml of PDB using plastic straws and incubated for 4 days. Aglafoline (0.3 or 3 µM) or DMSO was added to dishes and incubated for 6 h.
(§2) A single colony from the glycerol stocks was cultured by the same method used for mycelium preparation. The outer edges of colonies of each strain were transferred into six 300 ml flasks filled with 100 ml of PDA. Two milliliters of sterilized water was added to each flask, and the flasks were shaken well to ensure that the mycelial cells adhered to the entire surface of the PDA evenly. After 6 days of incubation in the dark, conidia generated on the surface of PDA were suspended in 20 ml of sterilized water. […]
(§3) Sequence data were processed as previously described ([McGlincy and Ingolia, 2017]) with modifications. For ribosome profiling, using the Fastp v0.21.0 ([Chen et al., 2018]) tool, sequences of reads 1 were corrected by reads 2, and quality filtering and adapter sequence removal were performed on reads 1. The adapter-removed reads 1 were split by the barcode sequence. […]

Data set [2] relates to C. orbiculare eIF4A^His153Gly conidia and mycelia. Described as above. It is filed as cell-based, Colletotrichum orbiculare. As to conditions: 3 µM aglafoline, 6 h, compared with eIF4A^WT. On the procedure: as §1, §2, §3
In a further data set the test system is C. sativus leaves. In words: Morphology of cucumber leaves sprayed with aglafoline. It is filed as in vivo, Cucumis sativus. As to conditions: aglafoline 1 µM in water sprayed, 3 days. On the procedure: Figure 4. Phenotypic comparison of the C. orbiculare eIF4A^WT and eIF4A^His153Gly strains during infection in the presence of rocaglate. (A) Workflow for monitoring the biomass of C. orbiculare eIF4A^WT or eIF4A^His153Gly strains on cucumber leaves under treatment with aglafoline. (B) Comparison of in planta fungal biomass of C. orbiculare eIF4A^WT or eIF4A^His153Gly strains with or without treatment with 1 µM aglafoline. Relative expression levels of the C. orbiculare 60 S ribosomal protein L5 gene (GenBank: Cob_v012718) normalized to that of a cucumber cyclophilin gene (GenBank: AY942800.1) were determined by RT–qPCR at 3 dpi (n = 8). The relative fungal biomasses of C. orbiculare were normalized to those of eIF4A^WT without aglafoline. Significance was calculated by Student’s t-test (two-tailed). […] Figure 4—source data 1. Files for the primary data corresponding to Figure 4B. Figure 4—figure supplement 1. Characterization of cucumber leaves treated with aglafoline. (A) C. sativus leaves were sprayed with DMSO or aglafoline (1 µM) in water and incubated for 3 days using the same method as C. orbiculare inoculation. Figure 4—figure supplement 1—source data 1. Files for the full and unedited pictures corresponding to Figure 4—figure supplement 1A. [drawing 12]

On to `COC(=O)[C@H]1[C@@H](O)[C@@]2(O)c3c(OC)cc(OC)cc3O[C@@]2(c2ccc(OC)cc2)[C@@H]1c1ccccc1` [Aglafoline, methyl rocaglate], for which the translation efficiency change entry in data set [1] was “a subset of mRNAs showed high aglafoline sensitivity in terms of translation efficiency in conidia; also recorded: the reduction was compound dose dependent”; in data set [2] it was “attenuated by the His153Gly substitution”. Also, in the data set on C. sativus leaves, the “morphological alteration of cucumber leaves” value is reported as “no morphological alteration of the leaves was observed”.

The values are drawn from PMC9977294, “A parasitic fungus employs mutated eIF4A to survive on rocaglate-synthesizing Aglaia plants” (eLife, 2023).
